Positions of bridges follow the written chain, without caps; N, C: chain ends. No end group written: not given here.
Legend:
human SLT [1] = target: T1, human SLT (Homo sapiens, UniProt Q969V1); assay: Inhibition of forskolin-stimulated cAMP production in human SLT-expressing CHO cells; assay type: cell-based; settings: CHO/hSLT cells, 2 μM forskolin, FIG. 2
T1 construct: expressed in transfected cells; host or cells: membrane fraction of CHO/hSLT cells (CHO dhfr- transfected with pAKKO-hSLT)

human SLT [2] = target: T1, human SLT; assay: FLIPR assay of intracellular Ca ion level in human SLT-expressing CHO cells; assay type: cell-based; settings: CHO/hSLT cells, Fluo 3-AM, FIG. 5
human SLT [3] = target: T1, human SLT; assay: Release of [3H] arachidonic acid metabolite in human SLT-expressing CHO cells; assay type: cell-based; settings: CHO/hSLT cells, FIG. 6
human SLT [4] = target: T1, human SLT; assay: Receptor binding assay with [125I]-labeled MCH (4-19) on cell membrane fraction of human SLT-expressing CHO cells; settings: membrane fractions from CHO/hSLT clones #1, 26, 36, 25° C., 60 minutes, FIG. 3

T1 sequence (Q969V1 whole entry): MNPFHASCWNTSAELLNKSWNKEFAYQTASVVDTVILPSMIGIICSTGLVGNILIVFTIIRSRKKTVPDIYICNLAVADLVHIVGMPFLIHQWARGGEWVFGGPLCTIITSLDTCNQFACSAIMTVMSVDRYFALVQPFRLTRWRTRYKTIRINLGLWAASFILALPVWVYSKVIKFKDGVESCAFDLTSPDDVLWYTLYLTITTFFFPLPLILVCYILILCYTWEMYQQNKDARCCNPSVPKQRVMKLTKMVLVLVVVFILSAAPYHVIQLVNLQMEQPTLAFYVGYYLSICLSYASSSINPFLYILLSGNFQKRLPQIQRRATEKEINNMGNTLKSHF

| Compound | concentration at which the intracellular cAMP was clearly decreased (human SLT [1]; 37° C., 30 minutes) [pM] | inhibition of cAMP production, concentration dependence (human SLT [1]) | increase of the intracellular Ca ion level (human SLT [2]) | activity to induce the release of the arachidonic acid metabolite (human SLT [3]) | specific binding to cell membrane fraction (human SLT [4]) |
| --- | --- | --- | --- | --- | --- |
| CSCC[C@@H]1NC(=O)[C@@H](NC(=O)[C@H](CCCNC(=N)N)NC(=O)[C@H](CC(C)C)NC(=O)[C@H](CCSC)NC(=O)[C@H](CC(=O)O)NC(=O)[C@H](Cc2ccccc2)NC(=O)[C@@H](N)CC(=O)O)CSSC[C@@H](C(=O)N[C@@H](Cc2c[nH]c3ccccc23)C(=O)N[C@@H](CCC(N)=O)C(=O)N[C@H](C(=O)O)C(C)C)NC(=O)[C@@H]2CCCN2C(=O)[C@H](CCCNC(=N)N)NC(=O)[C@H](Cc2ccc(O)cc2)NC(=O)[C@H](C(C)C)NC(=O)[C@H](CCCNC(=N)N)NC(=O)CNC(=O)[C@H](CC(C)C)NC1=O [MCH, Asp-Phe-Asp-Met-Leu-Arg-Cys-Met-Leu-Gly-Arg-Val-Tyr-Arg-Pro-Cys-Trp-Gln-V al] | 30 | decreased in a dose-dependent manner | increases the intracellular Ca ion level in human SLT-expressing CHO cells in a manner dependent on the concentration | in a does-dependent manner |  |
| [^125I]-[N-3-(4-hydroxy-3-iodophenyl)propionyl)-Met^4]-MCH (4-19) ({3‑(4-hydroxy-3-(125I)iodophenyl)propionyl}-MLRCMLGRVYRPCWQV; disulfide 4-13) [[^125I]-labeled MCH (4-19)] |  |  |  |  | dependent on the concentration of membrane fraction was observed |
